{"source": "paper PMC12192727", "about": "“Strategies to Develop Na,K-ATPase-α4 Inhibitors as Male Contraceptives” (International Journal of Molecular Sciences, 2025)", "key": {"NKAα4": {"target": "T1, NKAα4 (Rattus norvegicus, UniProt Q64541)", "T1 construct": "made in house; host or cells: Sf9 insect cells (baculovirus infection), cell homogenates", "T1 sequence (Q64541 whole entry, other chains not shown, canonical isoform)": "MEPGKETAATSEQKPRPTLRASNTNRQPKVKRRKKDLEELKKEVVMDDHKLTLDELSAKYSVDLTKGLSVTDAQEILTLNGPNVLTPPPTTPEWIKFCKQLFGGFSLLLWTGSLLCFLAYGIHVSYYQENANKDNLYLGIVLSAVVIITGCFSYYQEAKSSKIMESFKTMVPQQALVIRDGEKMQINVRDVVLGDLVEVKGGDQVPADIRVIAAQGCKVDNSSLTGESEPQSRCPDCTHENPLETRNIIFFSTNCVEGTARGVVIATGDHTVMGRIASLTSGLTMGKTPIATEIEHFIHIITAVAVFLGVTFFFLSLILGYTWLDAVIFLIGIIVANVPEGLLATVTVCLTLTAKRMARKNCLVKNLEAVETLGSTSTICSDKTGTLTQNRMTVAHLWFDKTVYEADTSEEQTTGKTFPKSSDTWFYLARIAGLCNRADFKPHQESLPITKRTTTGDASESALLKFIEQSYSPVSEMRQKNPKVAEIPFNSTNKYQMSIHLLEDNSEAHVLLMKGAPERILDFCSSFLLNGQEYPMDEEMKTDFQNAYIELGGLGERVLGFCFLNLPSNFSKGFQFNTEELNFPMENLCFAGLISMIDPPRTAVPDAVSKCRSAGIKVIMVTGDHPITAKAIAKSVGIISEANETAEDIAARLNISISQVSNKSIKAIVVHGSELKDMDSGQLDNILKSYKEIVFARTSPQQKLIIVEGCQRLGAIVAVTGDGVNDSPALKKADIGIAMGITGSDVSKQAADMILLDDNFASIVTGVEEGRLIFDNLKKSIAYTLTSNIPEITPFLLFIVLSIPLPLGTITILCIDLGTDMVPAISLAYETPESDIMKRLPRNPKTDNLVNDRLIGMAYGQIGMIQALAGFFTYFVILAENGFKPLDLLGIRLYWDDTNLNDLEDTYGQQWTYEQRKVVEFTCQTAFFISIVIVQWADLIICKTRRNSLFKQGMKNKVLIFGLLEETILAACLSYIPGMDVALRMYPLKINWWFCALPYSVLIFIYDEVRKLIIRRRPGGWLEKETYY", "assay": "Na,K-ATPase activity assay, α4β1 expressed in Sf9 insect cells", "type": "biochemical", "experimental": "The NKA α1 and α4 isoforms were expressed in Sf9 insect cells as previously described. Briefly, cells were cultured in suspension at 27 °C in Grace’s medium (JRH Biosciences, Lenexa, KS, USA) with 3.3 g/L of lactalbumin hydrolysate and 3.3 g/L of yeastolate and supplemented with 10% (v/v) fetal bovine serum, 100 units/mL of penicillin, 100 μg/mL of streptomycin, and 0.25 μg/mL of fungizone. For infections, cells were placed on 150 mm Petri dishes and infected with baculoviruses coding for the NKA α1β1 and α4β1 isozymes. Three days after infection, cells were scraped from the culture plates, centrifuged at 1500× g for 10 min, and washed twice in 10 mM imidazole hydrochloride (pH 7.5) and 1 mM EGTA (suspension buffer). Cells were then placed in a suspension buffer plus the addition of 0.32 M sucrose and stored at −20 °C or directly used for assays.\nThe Na,K-ATPase activity of insect cell homogenates was determined by measuring the initial rate of release of ^32Pi from γ[^32P]-ATP as described. The incubation medium (0.25 mL final volume) contained 120 mM NaCl, 30 mM KCl, 3 mM MgCl2, 0.2 mM EGTA, 30 mM Tris-HCl (pH 7.4), and different concentrations of the corresponding compounds. The assay was started by the addition of ATP with 0.2 μCi γ[^32P]-ATP (2 mM final concentration). After 30 min of incubation at 37 °C, the reaction was stopped with trichloroacetic acid, and 5% ammonium molybdate in 4 N H2SO4 was used to complex the ^32Pi released in the Na,K-ATPase reaction. The phosphomolybdate was extracted with isobutanol as described, and 170 μL of the organic phase was taken and subjected to liquid scintillation counting. Enzymatic activity was determined as the difference in ATP hydrolysis in the absence and presence of 1 mM ouabain.\nFigure 6 Selectivity of 13 and 45 on NKAα4 over the NKAα1 isoform. […] The hydrolysis of ATP in the presence of saturating concentrations of Na^+, K^+, and Mg^2+ was measured using γ[^32P]-ATP. The curves represent the best fit of the experimental data to a single population of binding sites. Each value is the mean ± SEM of three independent experiments."}, "mouse sperm": {"system": "mouse sperm", "assay": "Sperm viability (Live/Dead assay)", "type": "cell-based", "details": "10 µM, one hour", "experimental": "To assess whether 13 and 45 affected sperm viability, we treated mouse sperm with the compounds for one hour at 10 µM and determined the number of live and dead cells in the sample.\nFigure 5 Cell viability after treatment with compounds 13 and 45. Mouse caudal epididymal sperm was subjected to a medium not supporting capacitation to 10 µM of 13 and 45. After one hour, sperm was subjected to the Live/Dead assay as per the manufacturer’s recommendations. Cells were counted as viable/non-viable and expressed as the mean ± SEM of three determinations."}, "physchem": {"assay": "physchem", "type": "physicochemical", "details": "PBS pH 7.4", "experimental": "The stock solutions of 11 and 45 were prepared in DMSO at a concentration of 30 mM, and the stock solution of the control compound was prepared in DMSO at a concentration of 30 mM. Progesterone was used as a positive control in the assay. An amount of 10 µL of stock solution of each compound was placed in order into their proper 96-well rack, followed by adding 990 µL of PBS at pH 7.4 into each vial of the capless Solubility Sample plate. This study was performed in duplicate. One stir stick was added to each vial and then sealed using a molded PTDE/SIL 96-Well Plate Cover (Pharmaron, Waltman, MA, USA). The Solubility Sample plate was transferred to the Thermomixer Comfort plate shaker and incubated at RT for 2 h with shaking at 1100 rpm. After 2 h of incubation, stir sticks were removed using a big magnet, and all samples from the Solubility Sample plate were transferred into the filter plate. All the samples were filtered using a vacuum manifold. The filtered samples were diluted with methanol. The soluble fraction (filtrate) was then analyzed by LC-MS/MS, and the compound concentration was determined using 0.3 μM standard solutions prepared from DMSO stocks. The experimental details are reported in the Supporting Information (Table S1). […]\nTable S1 . Solubility Results of Test C ompound and Control C ompound in […]\nCompound ID Solubility (µM)\nPreparation of Stock Solutions: The stock solutions of test compounds were prepared in DMSO at the concentration of 30 mM, and the stock solution of control compound was prepared in DMSO at the concentration of 30 mM.\nProgesterone was used as positive control in the assay.\nSolubility Determination: 10 µL stock solution of each compound was placed in order into their proper 96-well rack, followed by adding 990 µL of PBS at pH 7.4 into each vial of the cap-less Solubility Sample plate. This study was performed in duplicate. One stir stick was added to each vial and then vials were sealed using a molded PTDE/SIL 96-Well Plate Cover. The Solubility Sample plate was transferred to the Thermomixer Comfort plate shaker and incubated at RT for 2 hours with shaking at 1100 rpm. After 2 hours incubation, stir sticks were removed using a big magnet and all samples from the Solubility Sample plate were transferred into the filter plate. All the samples were filtered by using the Vacuum Manifold. The filtered samples were diluted with methanol. The dilution factor might be changed according to the solubility value and the LC/MS signal response. To prepare 0.3 µM Standards (STD), 30 mM DMSO compound stock solutions were diluted with DMSO to 300 µM and then diluted with methanol to obtain 0.3 µM STDs. Samples were analyzed by LC-MS/MS. All calculations were carried out using Microsoft Excel. The solution filtered was analyzed and quantified against a standard of known concentration in DMSO using LC coupled with Mass spectral peak identification and quantitation. The solubility values of the test compounds were calculated as follow DF means the dilution factor\n1. Chromatographic conditions\nApparatus: Triple QuadTM 5500 instrument from AB Inc (Canada) with an ESI interface Column: XSelect Hss T3 2.5µ (2.1×50 mm) Column XP coupled with preguard column Mobile phase: 0.1% formic acid in acetonitrile (A) and 0.1% formic acid in water (B) […]"}, "rat hepatocytes": {"system": "rat hepatocytes", "assay": "Metabolic stability in rat hepatocytes", "type": "in vitro ADME", "experimental": "The in vitro metabolic half-life (t1/2) is calculated using the slope of the log−linear regression from the percentage of the parent compound remaining versus the time relationship (κ). The experimental details are reported in the Supporting Information (Tables S6 and S7)."}, "[1]": {"details": "α4β1 in Sf9 insect cells, ± SEM of three experiments"}, "[2]": {"details": "aqueous buffer, kinetic from dmso stock, read-out: Solubility"}}, "note": "pIC50: −log10 of the molar value. Like-named read-outs stand apart in the source and are kept apart here."}
{"smiles": "C[C@]12CC[C@H]3[C@@H](CC=C4C[C@@H](O)CC[C@@]43C)[C@@H]1CC[C@@H]2c1cn(Cc2ccccc2)nn1", "note": "[Compound 13, (3S,8S,9S,10R,13S,14S,17S)-17-(1-Benzyl-1H-1,2,3-triazol-4-yl)-10,13-dimethyl-2,3,4,7,8,9,10,11,12,13,14,15,16,17-tetradecahydro-1H-cyclopenta[a]phenanthren-3-ol]", "values": [{"measurement": "pIC50", "setting": "NKAα4", "result": 10.00}, {"measurement": "NKA Isoform Specificity (IC50 M) NKAα4", "setting": "NKAα4; [1]", "result": "nanomolar range"}, {"measurement": "Sperm viability", "setting": "mouse sperm", "result": "the same as that of the untreated controls"}, {"measurement": "Solubility", "setting": "physchem", "result": "poor"}, {"measurement": "Solubility", "setting": "physchem; [2]", "result": 0.3, "unit": "µM"}]}
{"smiles": "CC12CCC(=O)C=C1CCCC2n1cc(-c2ccccc2)nn1", "note": "(stereo not shown) [Compound 45, 4a-Methyl-5-(4-phenyl-1H-1,2,3-triazol-1-yl)-4,4a,5,6,7,8-hexahydronaphthalen-2(3H)-one]", "values": [{"measurement": "NKA Isoform Specificity (IC50 M) NKAα4", "setting": "NKAα4; [1]", "result": "nanomolar range"}, {"measurement": "pIC50", "setting": "NKAα4; α4β1 in Sf9 insect cells, ± SEM of three experiments, read-out: NKA Isoform Specificity (IC50 M) NKAα4", "result": 8.57}, {"measurement": "Sperm viability", "setting": "mouse sperm", "result": "the same as that of the untreated controls"}, {"measurement": "Solubility", "setting": "physchem", "result": "good"}, {"measurement": "Solubility", "setting": "physchem; [2]", "result": 256, "unit": "µM"}, {"measurement": "Remaining Percentage (%)", "setting": "rat hepatocytes; rat boiled hepatocytes, 0 min", "result": 100.00, "unit": "%"}, {"measurement": "Remaining Percentage (%)", "setting": "rat hepatocytes; rat boiled hepatocytes, 15 min", "result": 101.65, "unit": "%"}, {"measurement": "Remaining Percentage (%)", "setting": "rat hepatocytes; rat boiled hepatocytes, 30 min", "result": 104.87, "unit": "%"}, {"measurement": "Remaining Percentage (%)", "setting": "rat hepatocytes; rat boiled hepatocytes, 60 min", "result": 104.47, "unit": "%"}, {"measurement": "Remaining Percentage (%)", "setting": "rat hepatocytes; rat boiled hepatocytes, 90 min", "result": 104.04, "unit": "%"}, {"measurement": "Remaining Percentage (%)", "setting": "rat hepatocytes; rat boiled hepatocytes, 120 min", "result": 104.50, "unit": "%"}, {"measurement": "Hepatic Extraction Ratio (E)", "setting": "rat hepatocytes; rat hepatocytes", "result": 0.86}, {"measurement": "Predicted hepatic CL", "setting": "rat hepatocytes; rat hepatocytes", "result": 47.44, "unit": "mL/min/kg"}, {"measurement": "Remaining Percentage (%)", "setting": "rat hepatocytes; rat hepatocytes, 0 min", "result": 100.00, "unit": "%"}, {"measurement": "Remaining Percentage (%)", "setting": "rat hepatocytes; rat hepatocytes, 15 min", "result": 51.55, "unit": "%"}, {"measurement": "Remaining Percentage (%)", "setting": "rat hepatocytes; rat hepatocytes, 30 min", "result": 26.35, "unit": "%"}, {"measurement": "Remaining Percentage (%)", "setting": "rat hepatocytes; rat hepatocytes, 60 min", "result": 9.77, "unit": "%"}, {"measurement": "Remaining Percentage (%)", "setting": "rat hepatocytes; rat hepatocytes, 90 min", "result": 3.36, "unit": "%"}, {"measurement": "Remaining Percentage (%)", "setting": "rat hepatocytes; rat hepatocytes, 120 min", "result": 1.25, "unit": "%"}, {"measurement": "Metabolic Stability in Hepatocytes (60 min), compound remaining", "setting": "rat hepatocytes; rat, 60 min", "result": 10, "unit": "%"}]}
